Remaining binding data for two compounds are collected here from article PMC9856672, “SGC-CAMKK2-1: A Chemical Probe for CAMKK2” (Cells, 2023).

Each structure is given as a SMILES string.

Experiment [1] addresses T1, SgK110 (Homo sapiens, UniProt P0C264).
T1 construct: purchased Eurofins DiscoverX KINOMEscan
The experiment is described as follows: KINOMEscan 1 μM, SgK110. Type of experiment: binding. The settings on record: 1000 nM; Entrez SgK110; read-out: Percent Control. The text has this:
(§1) Supplement cells-12-00287-s001.zip/File S2. KinomeScan data for the CAMKK2 probe and negative control.xlsx, sheet "SGC-CAMKK2-1" | column: Percent Control

The target in experiment [2] is T2, PIK3C2G (Homo sapiens, UniProt O75747).
T2 construct: purchased Eurofins DiscoverX KINOMEscan
Put plainly: KINOMEscan 1 μM, PIK3C2G. Type of experiment: binding. The settings on record: 1000 nM; Entrez PIK3C2G; read-out: Percent Control.
Excerpt: as §1

Experiment [3] deals with T3, MAP3K15 (Homo sapiens, UniProt Q6ZN16).
T3 construct: purchased Eurofins DiscoverX KINOMEscan
The experiment is described as follows: KINOMEscan 1 μM, MAP3K15. Type of experiment: binding. The settings on record: 1000 nM; Entrez MAP3K15; read-out: Percent Control.
Excerpt: as §1

In experiment [4] the target is T4, FGFR2 (Homo sapiens, UniProt P21802).
T4 construct: purchased Eurofins DiscoverX KINOMEscan
The experiment is described as follows: KINOMEscan 1 μM, FGFR2. Format: binding. The settings on record: 1000 nM; Entrez FGFR2; read-out: Percent Control.
Excerpt: as §1

Experiment [5] deals with T5, FGFR4 (Homo sapiens, UniProt P22455).
T5 construct: purchased Eurofins DiscoverX KINOMEscan
Put plainly: KINOMEscan 1 μM, FGFR4. Format: binding. The settings on record: 1000 nM; Entrez FGFR4; read-out: Percent Control.
Excerpt: as §1

Experiment [6] concerns the target T6, CLK3 (Homo sapiens, UniProt P49761).
T6 construct: purchased Eurofins DiscoverX KINOMEscan
Put plainly: KINOMEscan 1 μM, CLK3. Type of experiment: binding. The settings on record: 1000 nM; Entrez CLK3; read-out: Percent Control.
Excerpt: as §1

The target of experiment [7] is T7, CSF1R (Homo sapiens, UniProt P07333).
T7 construct: purchased Eurofins DiscoverX KINOMEscan
Put plainly: KINOMEscan 1 μM, CSF1R. Format: binding. The settings on record: 1000 nM; Entrez CSF1R; read-out: Percent Control.
Excerpt: as §1

Experiment [8] addresses T8, DAPK1 (Homo sapiens, UniProt P53355).
T8 construct: purchased Eurofins DiscoverX KINOMEscan
Put plainly: KINOMEscan 1 μM, DAPK1. Format: binding. The settings on record: 1000 nM; Entrez DAPK1; read-out: Percent Control.
Excerpt: as §1

Experiment [9] addresses T9, ERK5 (Homo sapiens, UniProt Q13164).
T9 construct: purchased Eurofins DiscoverX KINOMEscan
The experiment is described as follows: KINOMEscan 1 μM, ERK5. Format: binding. The settings on record: 1000 nM; Entrez MAPK7; read-out: Percent Control.
Excerpt: as §1

Experiment [10] concerns the target T10, PFTAIRE2 (Homo sapiens, UniProt Q96Q40).
T10 construct: purchased Eurofins DiscoverX KINOMEscan
Put plainly: DiscoverX KINOMEscan binding assay at 1 μM, PFTAIRE2. The settings on record: PFTAIRE2 (CDK15); Compound Concentration 1000 nM; read-out: Percent Control.
Excerpt: as §1

For experiment [11], the target named is T11, PIK3CA (Homo sapiens, UniProt P42336).
T11 construct: purchased Eurofins DiscoverX KINOMEscan
The experiment is described as follows: DiscoverX KINOMEscan binding assay at 1 μM, PIK3CA. The settings on record: Compound Concentration 1000 nM, read-out: Percent Control.
Excerpt: as §1

The target of experiment [12] is T12, RIPK4 (Homo sapiens, UniProt P57078).
T12 construct: purchased Eurofins DiscoverX KINOMEscan
The experiment is described as follows: DiscoverX KINOMEscan binding assay at 1 μM, RIPK4. The settings on record: Compound Concentration 1000 nM, read-out: Percent Control.
Excerpt: as §1

Experiment [13] addresses T13, RSK2(Kin.Dom.1-N-terminal) (Homo sapiens, UniProt P51812).
T13 construct: RSK2(Kin.Dom.1-N-terminal); purchased Eurofins DiscoverX KINOMEscan
The experiment is described as follows: DiscoverX KINOMEscan binding assay at 1 μM, RSK2(Kin.Dom.1-N-terminal). The settings on record: RSK2(Kin.Dom.1-N-terminal) (RPS6KA3); Compound Concentration 1000 nM; read-out: Percent Control.
Excerpt: as §1

For experiment [14], the target named is T14, WEE2 (Homo sapiens, UniProt P0C1S8).
T14 construct: purchased Eurofins DiscoverX KINOMEscan
Put plainly: DiscoverX KINOMEscan binding assay at 1 μM, WEE2. The settings on record: Compound Concentration 1000 nM, read-out: Percent Control.
Excerpt: as §1

The target of experiment [15] is T15, PIK3CA(H1047Y) (Homo sapiens, UniProt P42336, H1047Y).
T15 construct: purchased Eurofins DiscoverX KINOMEscan
The experiment is described as follows: KINOMEscan at 1 μM, PIK3CA(H1047Y). Format: binding. The settings on record: 1000 nM, read-out: Percent Control. An excerpt: (§2) Supplement cells-12-00287-s001.zip/File S2. KinomeScan data for the CAMKK2 probe and negative control.xlsx, sheet "SGC-CAMKK2-1N" | column: Percent Control

Experiment [16] deals with T16, ERBB3 (Homo sapiens, UniProt P21860).
T16 construct: purchased Eurofins DiscoverX KINOMEscan
The experiment is described as follows: KINOMEscan at 1 μM, ERBB3. Type of experiment: binding. The settings on record: 1000 nM, read-out: Percent Control.
Excerpt: as §2

For experiment [17], the target named is T17, CAMK2A (Homo sapiens, UniProt Q9UQM7).
T17 construct: purchased Eurofins DiscoverX KINOMEscan
T17 sequence (Q9UQM7 whole entry): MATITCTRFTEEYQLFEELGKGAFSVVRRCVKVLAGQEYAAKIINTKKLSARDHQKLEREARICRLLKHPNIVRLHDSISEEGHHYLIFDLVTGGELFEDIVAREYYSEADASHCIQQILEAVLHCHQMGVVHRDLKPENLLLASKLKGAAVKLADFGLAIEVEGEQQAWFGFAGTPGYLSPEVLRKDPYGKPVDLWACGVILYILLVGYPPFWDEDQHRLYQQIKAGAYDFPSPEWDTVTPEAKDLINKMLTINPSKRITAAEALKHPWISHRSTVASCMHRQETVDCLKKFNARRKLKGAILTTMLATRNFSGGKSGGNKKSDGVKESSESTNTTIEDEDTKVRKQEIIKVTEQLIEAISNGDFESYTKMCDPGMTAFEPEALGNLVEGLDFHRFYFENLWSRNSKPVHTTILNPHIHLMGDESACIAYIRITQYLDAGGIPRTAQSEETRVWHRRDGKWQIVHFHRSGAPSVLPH
Put plainly: KINOMEscan at 1 μM, CAMK2A. Format: binding. The settings on record: 1000 nM, read-out: Percent Control.
Excerpt: as §2

The target of experiment [18] is T18, BMX (Homo sapiens, UniProt P51813).
T18 construct: purchased Eurofins DiscoverX KINOMEscan
Put plainly: KINOMEscan at 1 μM, BMX. Type of experiment: binding. The settings on record: 1000 nM, read-out: Percent Control.
Excerpt: as §2

Experiment [19] has as its target T19, HIPK2 (Homo sapiens, UniProt Q9H2X6).
T19 construct: purchased Eurofins DiscoverX KINOMEscan
Put plainly: KINOMEscan at 1 μM, HIPK2. The settings on record: 1000 nM, read-out: Percent Control. Format: binding.
Excerpt: as §2

The target of experiment [20] is T20, FLT4 (Homo sapiens, UniProt P35916).
T20 construct: purchased Eurofins DiscoverX KINOMEscan
Put plainly: KINOMEscan at 1 μM, FLT4. The settings on record: 1000 nM, read-out: Percent Control. Format: binding.
Excerpt: as §2

Experiment [21] addresses T21, EGFR(T790M) (Homo sapiens, UniProt P00533, T790M).
T21 construct: purchased Eurofins DiscoverX KINOMEscan
The experiment is described as follows: KINOMEscan at 1 μM, EGFR(T790M). Type of experiment: binding. The settings on record: 1000 nM, read-out: Percent Control.
Excerpt: as §2

Experiment [22] addresses T22, ERK8 (Homo sapiens, UniProt Q8TD08).
T22 construct: purchased Eurofins DiscoverX KINOMEscan
Put plainly: KINOMEscan at 1 μM, ERK8. Type of experiment: binding. The settings on record: 1000 nM, read-out: Percent Control.
Excerpt: as §2

In experiment [23] the target is T23, STK35 (Homo sapiens, UniProt Q8TDR2).
T23 construct: purchased Eurofins DiscoverX KINOMEscan
Put plainly: KINOMEscan at 1 μM, STK35. Type of experiment: binding. The settings on record: 1000 nM, read-out: Percent Control.
Excerpt: as §2

In experiment [24] the target is T24, MRCKA (Homo sapiens, UniProt Q5VT25).
T24 construct: purchased Eurofins DiscoverX KINOMEscan
Put plainly: KINOMEscan at 1 μM, MRCKA. The settings on record: 1000 nM, read-out: Percent Control. Format: binding.
Excerpt: as §2

The target of experiment [25] is T25, SRC (Homo sapiens, UniProt P12931).
T25 construct: purchased Eurofins DiscoverX KINOMEscan
Put plainly: KINOMEscan at 1 μM, SRC. Format: binding. The settings on record: 1000 nM, read-out: Percent Control.
Excerpt: as §2

In experiment [26] the target is T26, CSNK1A1L (Homo sapiens, UniProt Q8N752).
T26 construct: purchased Eurofins DiscoverX KINOMEscan
The experiment is described as follows: KINOMEscan at 1 μM, CSNK1A1L. The settings on record: 1000 nM, read-out: Percent Control. Format: binding.
Excerpt: as §2

The target in experiment [27] is T27, CSNK1G2 (Homo sapiens, UniProt P78368).
T27 construct: purchased Eurofins DiscoverX KINOMEscan
T27 sequence (P78368 whole entry): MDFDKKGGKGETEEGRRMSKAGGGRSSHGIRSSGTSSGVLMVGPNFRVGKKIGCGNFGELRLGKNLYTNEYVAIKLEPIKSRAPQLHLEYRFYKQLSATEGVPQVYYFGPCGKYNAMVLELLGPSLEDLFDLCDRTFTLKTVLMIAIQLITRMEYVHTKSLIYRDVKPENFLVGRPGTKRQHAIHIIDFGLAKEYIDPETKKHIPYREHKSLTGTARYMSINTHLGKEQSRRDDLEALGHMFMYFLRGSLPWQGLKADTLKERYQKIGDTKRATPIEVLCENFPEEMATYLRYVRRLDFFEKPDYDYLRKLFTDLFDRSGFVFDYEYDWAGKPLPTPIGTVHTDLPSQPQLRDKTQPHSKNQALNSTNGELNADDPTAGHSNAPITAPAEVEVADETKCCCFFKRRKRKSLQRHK
Put plainly: KINOMEscan at 1 μM, CSNK1G2. Type of experiment: binding. The settings on record: 1000 nM, read-out: Percent Control.
Excerpt: as §2

Experiment [28] deals with T28, DCAMKL3 (Homo sapiens, UniProt Q9C098).
T28 construct: purchased Eurofins DiscoverX KINOMEscan
The experiment is described as follows: KINOMEscan at 1 μM, DCAMKL3. Type of experiment: binding. The settings on record: 1000 nM, read-out: Percent Control.
Excerpt: as §2

Experiment [29] deals with T29, DDR2 (Homo sapiens, UniProt Q16832).
T29 construct: purchased Eurofins DiscoverX KINOMEscan
The experiment is described as follows: KINOMEscan at 1 μM, DDR2. Type of experiment: binding. The settings on record: 1000 nM, read-out: Percent Control.
Excerpt: as §2

Experiment [30] addresses T30, HCK (Homo sapiens, UniProt P08631).
T30 construct: purchased Eurofins DiscoverX KINOMEscan
Put plainly: KINOMEscan binding assay at 1 μM, HCK. The settings on record: Compound Concentration 1000 nM; read-out: Percent Control.
Excerpt: as §2

Experiment [31] concerns the target T31, IGF1R (Homo sapiens, UniProt P08069).
T31 construct: purchased Eurofins DiscoverX KINOMEscan
Put plainly: KINOMEscan binding assay at 1 μM, IGF1R. The settings on record: Compound Concentration 1000 nM; read-out: Percent Control.
Excerpt: as §2

In experiment [32] the target is T32, LCK (Homo sapiens, UniProt P06239).
T32 construct: purchased Eurofins DiscoverX KINOMEscan
The experiment is described as follows: KINOMEscan binding assay at 1 μM, LCK. The settings on record: Compound Concentration 1000 nM; read-out: Percent Control.
Excerpt: as §2

The target in experiment [33] is T33, LYN (Homo sapiens, UniProt P07948).
T33 construct: purchased Eurofins DiscoverX KINOMEscan
Put plainly: KINOMEscan binding assay at 1 μM, LYN. The settings on record: Compound Concentration 1000 nM; read-out: Percent Control.
Excerpt: as §2

For experiment [34], the target named is T34, NEK6 (Homo sapiens, UniProt Q9HC98).
T34 construct: purchased Eurofins DiscoverX KINOMEscan
Put plainly: KINOMEscan binding assay at 1 μM, NEK6. The settings on record: Compound Concentration 1000 nM; read-out: Percent Control.
Excerpt: as §2

In experiment [35] the target is T35, RET (Homo sapiens, UniProt P07949).
T35 construct: purchased Eurofins DiscoverX KINOMEscan
Put plainly: KINOMEscan binding assay at 1 μM, RET. The settings on record: Compound Concentration 1000 nM; read-out: Percent Control.
Excerpt: as §2

T10 sequence (Q96Q40 whole entry): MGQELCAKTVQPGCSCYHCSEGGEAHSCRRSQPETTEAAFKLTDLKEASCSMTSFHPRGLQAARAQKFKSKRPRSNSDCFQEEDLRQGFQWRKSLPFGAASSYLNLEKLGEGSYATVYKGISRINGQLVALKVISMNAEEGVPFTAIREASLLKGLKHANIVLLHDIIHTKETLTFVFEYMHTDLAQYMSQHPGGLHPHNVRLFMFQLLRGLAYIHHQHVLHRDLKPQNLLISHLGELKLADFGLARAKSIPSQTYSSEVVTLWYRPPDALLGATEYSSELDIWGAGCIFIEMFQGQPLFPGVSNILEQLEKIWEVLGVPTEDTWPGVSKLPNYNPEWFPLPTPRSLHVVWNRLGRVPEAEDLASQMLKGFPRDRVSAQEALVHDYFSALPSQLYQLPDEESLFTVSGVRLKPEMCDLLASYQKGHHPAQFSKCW
T21 sequence (P00533 25-1210 T790M): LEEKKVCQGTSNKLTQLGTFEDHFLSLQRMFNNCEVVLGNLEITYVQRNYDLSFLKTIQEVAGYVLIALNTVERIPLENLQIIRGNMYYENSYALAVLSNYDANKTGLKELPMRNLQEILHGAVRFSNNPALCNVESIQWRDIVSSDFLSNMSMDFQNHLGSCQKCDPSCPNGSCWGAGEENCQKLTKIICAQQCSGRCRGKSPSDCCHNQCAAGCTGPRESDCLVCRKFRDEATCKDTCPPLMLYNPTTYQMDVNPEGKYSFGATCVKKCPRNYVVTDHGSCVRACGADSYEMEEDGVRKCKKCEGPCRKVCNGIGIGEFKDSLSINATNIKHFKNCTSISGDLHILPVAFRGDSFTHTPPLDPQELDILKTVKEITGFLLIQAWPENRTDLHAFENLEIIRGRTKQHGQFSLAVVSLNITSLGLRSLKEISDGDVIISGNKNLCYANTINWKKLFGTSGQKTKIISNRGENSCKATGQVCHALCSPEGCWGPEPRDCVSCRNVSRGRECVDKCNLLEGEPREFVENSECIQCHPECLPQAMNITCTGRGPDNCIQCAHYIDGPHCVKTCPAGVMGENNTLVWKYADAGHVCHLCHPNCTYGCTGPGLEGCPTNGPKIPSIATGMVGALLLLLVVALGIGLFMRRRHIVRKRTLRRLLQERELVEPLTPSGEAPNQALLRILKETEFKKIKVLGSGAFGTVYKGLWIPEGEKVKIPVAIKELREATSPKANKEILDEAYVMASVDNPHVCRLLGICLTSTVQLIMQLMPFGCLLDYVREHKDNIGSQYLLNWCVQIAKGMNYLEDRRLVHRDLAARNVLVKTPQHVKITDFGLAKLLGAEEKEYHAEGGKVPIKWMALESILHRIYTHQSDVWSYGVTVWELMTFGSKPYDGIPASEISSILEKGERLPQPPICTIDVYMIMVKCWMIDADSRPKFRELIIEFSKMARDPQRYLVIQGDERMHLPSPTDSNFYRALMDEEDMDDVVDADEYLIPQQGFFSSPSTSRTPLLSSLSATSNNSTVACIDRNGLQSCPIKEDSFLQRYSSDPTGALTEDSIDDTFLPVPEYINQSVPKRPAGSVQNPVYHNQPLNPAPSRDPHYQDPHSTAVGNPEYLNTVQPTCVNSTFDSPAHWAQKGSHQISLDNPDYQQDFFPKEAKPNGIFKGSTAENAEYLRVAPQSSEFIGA
T8 sequence (P53355 whole entry): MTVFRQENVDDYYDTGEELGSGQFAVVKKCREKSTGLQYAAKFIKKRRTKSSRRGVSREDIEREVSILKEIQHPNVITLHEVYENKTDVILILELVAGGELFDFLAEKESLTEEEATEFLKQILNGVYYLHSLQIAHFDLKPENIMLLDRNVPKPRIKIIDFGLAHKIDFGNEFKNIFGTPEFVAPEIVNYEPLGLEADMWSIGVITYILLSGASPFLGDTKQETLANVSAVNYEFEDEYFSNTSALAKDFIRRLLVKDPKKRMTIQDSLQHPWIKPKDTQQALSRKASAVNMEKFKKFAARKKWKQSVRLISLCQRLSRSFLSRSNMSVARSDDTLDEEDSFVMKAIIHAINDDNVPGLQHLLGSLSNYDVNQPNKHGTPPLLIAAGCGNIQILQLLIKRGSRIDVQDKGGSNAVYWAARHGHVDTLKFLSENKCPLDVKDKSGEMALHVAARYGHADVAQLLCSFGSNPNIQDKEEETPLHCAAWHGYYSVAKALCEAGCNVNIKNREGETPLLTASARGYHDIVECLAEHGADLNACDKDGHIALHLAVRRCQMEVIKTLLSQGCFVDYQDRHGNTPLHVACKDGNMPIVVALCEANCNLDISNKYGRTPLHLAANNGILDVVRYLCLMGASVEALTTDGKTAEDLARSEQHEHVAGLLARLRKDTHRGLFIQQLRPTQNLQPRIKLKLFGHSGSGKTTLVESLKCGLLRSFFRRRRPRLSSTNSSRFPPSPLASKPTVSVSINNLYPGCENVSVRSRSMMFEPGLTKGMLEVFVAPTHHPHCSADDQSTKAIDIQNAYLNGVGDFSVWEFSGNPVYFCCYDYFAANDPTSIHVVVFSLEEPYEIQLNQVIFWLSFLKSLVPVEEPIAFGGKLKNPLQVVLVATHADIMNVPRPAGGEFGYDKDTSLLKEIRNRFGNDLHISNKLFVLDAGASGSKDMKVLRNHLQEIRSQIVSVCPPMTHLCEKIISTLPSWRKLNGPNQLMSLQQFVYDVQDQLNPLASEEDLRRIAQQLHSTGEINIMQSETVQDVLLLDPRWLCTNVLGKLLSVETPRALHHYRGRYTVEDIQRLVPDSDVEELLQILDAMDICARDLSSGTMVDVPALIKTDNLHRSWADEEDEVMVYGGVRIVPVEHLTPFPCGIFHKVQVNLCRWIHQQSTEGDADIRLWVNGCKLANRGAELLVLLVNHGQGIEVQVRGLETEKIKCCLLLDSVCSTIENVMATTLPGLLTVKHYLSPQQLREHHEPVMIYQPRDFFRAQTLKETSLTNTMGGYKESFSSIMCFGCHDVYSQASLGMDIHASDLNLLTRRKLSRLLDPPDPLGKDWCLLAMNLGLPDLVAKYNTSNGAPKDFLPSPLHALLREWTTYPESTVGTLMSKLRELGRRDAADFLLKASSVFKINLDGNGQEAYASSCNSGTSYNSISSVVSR
T13 sequence (P51812 1-397 limits assumed): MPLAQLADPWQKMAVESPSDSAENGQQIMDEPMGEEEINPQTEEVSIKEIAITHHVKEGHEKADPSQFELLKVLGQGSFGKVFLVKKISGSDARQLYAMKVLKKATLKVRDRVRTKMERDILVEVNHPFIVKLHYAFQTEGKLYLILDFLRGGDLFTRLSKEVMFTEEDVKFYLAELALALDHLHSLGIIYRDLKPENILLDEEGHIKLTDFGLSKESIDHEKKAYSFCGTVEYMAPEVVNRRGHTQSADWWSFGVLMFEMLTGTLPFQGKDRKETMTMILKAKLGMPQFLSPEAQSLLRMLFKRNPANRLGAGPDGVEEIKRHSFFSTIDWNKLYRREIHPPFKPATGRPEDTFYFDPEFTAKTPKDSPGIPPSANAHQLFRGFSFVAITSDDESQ
T6 sequence (P49761 whole entry): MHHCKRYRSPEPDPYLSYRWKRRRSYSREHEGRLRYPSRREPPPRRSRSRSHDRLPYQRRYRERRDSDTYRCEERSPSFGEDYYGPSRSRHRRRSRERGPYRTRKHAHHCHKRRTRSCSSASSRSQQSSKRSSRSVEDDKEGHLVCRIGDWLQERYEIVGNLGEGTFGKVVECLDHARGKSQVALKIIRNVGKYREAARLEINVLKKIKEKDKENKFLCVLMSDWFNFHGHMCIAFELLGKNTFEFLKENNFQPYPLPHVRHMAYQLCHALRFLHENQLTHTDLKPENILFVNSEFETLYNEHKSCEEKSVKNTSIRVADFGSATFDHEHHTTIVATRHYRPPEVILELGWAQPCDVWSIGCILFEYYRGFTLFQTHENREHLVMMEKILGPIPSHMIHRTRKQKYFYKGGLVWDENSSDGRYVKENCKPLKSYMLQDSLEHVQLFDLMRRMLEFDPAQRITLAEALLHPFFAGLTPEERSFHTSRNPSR

In the case of `Cc1cccc(-c2cnc3occ(-c4ccc(C(=O)O)c(C5CCCC5)c4)c3c2)c1` [SGC-CAMKK2-1 (YL-36)], the remaining binding at 1 µM was determined as 57% in experiment [1]; 81% in [2]; 84% in [3]; 88% in experiment [4]; 98% in experiment [5]; 100% in experiment [6]. The remaining binding at 1 µM in experiment [7], in experiment [8], in experiment [9], in experiment [10], in [11] and in experiment [12] was 100% in each case. Moreover, the remaining binding at 1 µM in experiment [13] and in experiment [14] was 100% each time.

Turning to `O=C(O)c1ccc(-c2coc3ncc(-c4ccccc4)cc23)cc1Cl` [SGC-CAMKK2-1N (UNC-YL-83)], the remaining binding at 1 µM in experiment [15] was 59%; in experiment [16], 64%; in [17], 65%; in experiment [18], 77%; in experiment [19], 77%; in experiment [20], 82%. Further, the remaining binding at 1 µM in [21] was determined as 85%; in [22] it was 86%; in [23], 88%; in [24], 96%; in [25], 97%; in experiment [26], 99%. Also, the remaining binding at 1 µM in [27], in [28], in experiment [29], in experiment [30], in experiment [31] and in experiment [32] was 100% in each case. Further, the remaining binding at 1 µM in experiment [33], in experiment [34] and in experiment [35] was 100% in each case.
